Reference: patent publication US20110306621A1, “ACYLGUANIDINE DERIVATIVES” (priority 2009, published 2011)

molecular target: T1, human 5-HT5A receptor (Homo sapiens, UniProt P47898); test: Test on a human 5-HT5A receptor binding inhibition ([3H]5-CT); settings: membrane from HEK293 cells for forced expression of human 5-HT5A receptor; Ki calculated from IC50 and Kd of [3H]5-CT (4.95 nM)
T1 construct: expressed in transfected cells; membranes used
Protocol: The ORF (open reading frame; protein coding region) of a human 5-HT5A receptor (Genbank AF498985) was cloned from a human hippocampus cDNA library, and then inserted into a pCR2.1 vector (Invitrogen), and Escherichia coli containing the plasmid was cultured in a large amount. Next, the full-length cDNA sequence of the human 5-HT5A receptor was analyzed, and recombined into a pcDNA3.1 vector (Invitrogen) as an expression vector and cultured in a large amount. HEK293 established cells (ATCC) derived from the human fetal kidney were seeded, the expression plasmid (1 μg) obtained above were added thereto with LIPOFECTAMINE 2000 (Invitrogen; 2 μl), the gene was transfected into HEK293 cells, and the expression cells were screened with a drug-resistant marker, Geneticin (G418 sulfate 500 μg/ml; Kanto Chemical Co., Inc.). Thus prepared recombinant cells which expressed the gene were cultured in a medium containing D-MEM (Dulbecco's modified eagle medium, Sigma), 10% FCS (Fetal calf serum: fetal bovine serum), 1% Pc./Sm (Penicillin/Streptomycin, Invitrogen), and 500 μg/ml G418 for 3 days. These experimental operations followed a manual for gene operation experiment and an instruction appended in a reagent, and the like, such as a known method (Sambrook, J. et al, Molecular Cloning-A Laboratory Manual”, Cold Spring Harabor laboratory, NY, 1989).
HEK293 cells for forced expressions of a human 5-HT5A receptor were cultured in a F500 plate, and scraped with a scraper. After centrifugation, the precipitate was collected, and an incubation buffer (50 mM Tris (HCl) (pH 7.4), 10 mM MgSO4, and 0.5 mM EDTA (ethylenediamine tetraacetic acid)) was added thereto. After homogenization, it was further centrifuged, and the incubation buffer was added to the precipitate, followed by thoroughly suspending. The operation was repeated, and protein concentration was measured, thereby completing preparation of the membrane.
A solution of the compound to be tested and 100 μM 5-CT (5-carboxamidetriptamine) in DMSO was added to a 96-well plate at 2 μl/well, suspended in an incubation buffer, and a membrane from HEK293 cells for forced expressions of a human 5-HT5A receptor prepared at 200 μg/ml was added at 100 μl/well. After incubation at room temperature for 15 minutes, a [^3H]5-CT solution (2 nM [^3H]5-CT, incubation buffer) was added thereto at 100 μl/well.
Separately, 100 μl of the solution was distributed into a liquid scintillation vial, and 2 ml of Aquasol II (registered trademark) was added thereto, followed by stirring. Then, radioactivity was measured by a liquid scintillation counter. It was incubated at 37° C. for 60 minutes. The reaction mixture was sucked into 96-well GF/C filter plate that had been pre-treated with 0.2% polyethyleneimine, and washed six times with an ice-cooled, 50 mM Tris (pH 7.5) buffer. The GF/C filter plate was dried.
Microscint TMPS (registered trademark) was added thereto at 40 μl/well. Radioactivity remaining on the GF/C filter plate was measured by a top counter.
The [^3H]5-CT binding inhibiting activity by the compound to be tested in each experiment was determined as an IC50 value with a radioactivity upon addition of DMSO alone being 0% inhibition, and a radioactivity upon addition of 1 μM 5-CT being 100% inhibition. Separately, Ki values were calculated from the Kd value of the [^3H]5-CT determined from Scatchard analysis, by the following equation.
Ki=IC50 (1+Concentraion of ligand added/Kd (4.95 nM))

T1 sequence (P47898 whole entry): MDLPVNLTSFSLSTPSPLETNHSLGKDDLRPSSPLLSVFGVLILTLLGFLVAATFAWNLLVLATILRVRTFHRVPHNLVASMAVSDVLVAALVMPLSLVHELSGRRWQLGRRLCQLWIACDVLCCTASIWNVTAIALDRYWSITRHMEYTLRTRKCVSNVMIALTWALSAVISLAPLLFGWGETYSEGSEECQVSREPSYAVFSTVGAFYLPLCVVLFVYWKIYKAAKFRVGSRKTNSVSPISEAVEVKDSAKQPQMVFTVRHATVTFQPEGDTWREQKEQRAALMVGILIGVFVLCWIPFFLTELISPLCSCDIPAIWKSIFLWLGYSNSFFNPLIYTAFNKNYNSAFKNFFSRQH

Ki [nM]	Structure (SMILES)
3 to 30	NC(N)=NC(=O)c1ccc2cccc(-c3cc(C4CC4)ncc3F)c2c1 [Example 199]
3 to 30	N#Cc1cnc(-c2cccc3ccc(C(=O)N=C(N)N)cc23)c(Cl)c1 [Example 196]
3 to 30	COc1cccc(-c2cccc3ccc(C(=O)N=C(N)N)cc23)n1 [Example 159]
0.3 to 3	NC(N)=NC(=O)c1ccc2cccc(-c3ncc(F)cc3F)c2c1 [Example 190]
30 to 300	NC(N)=NC(=O)c1ccc2cccc(-c3ccccc3-c3ccccc3)c2c1 [Example 101]
0.3 to 3	NC(N)=NC(=O)c1ccc2cccc(-c3ccccc3Cl)c2c1 [Example 7]
3 to 30	Cc1cc(Cl)cnc1-c1cccc2ccc(C(=O)N=C(N)N)cc12 [Example 152]
3 to 30	NC(N)=NC(=O)c1ccc2cccc(-c3ncccc3F)c2c1 [Example 135]
0.3 to 3	NC(N)=NC(=O)c1ccc2ccc(F)c(-c3ccncc3Cl)c2c1 [Example 160]
3 to 30	NC(N)=NC(=O)c1ccc2cccc(-c3ccccc3OC(F)F)c2c1 [Example 93]
3 to 30	NC(N)=NC(=O)c1ccc2cccc(-c3ccc(F)cc3OC(F)F)c2c1 [Example 94]
0.3 to 3	Cc1nc(C)c(-c2c(F)ccc3ccc(C(=O)N=C(N)N)cc23)s1 [Example 186]
0.3 to 3	Cc1ccc2ccc(C(=O)N=C(N)N)cc2c1-c1ccncc1F [Example 114]
3 to 30	NC(N)=NC(=O)c1ccc2cccc(-c3cncs3)c2c1 [Example 182]
3 to 30	N#Cc1cccc(Cl)c1-c1cccc2ccc(C(=O)N=C(N)N)cc12 [Example 164]
0.3 to 3	NC(N)=NC(=O)c1ccc2cccc(-c3c(O)cccc3Cl)c2c1 [Example 116]
0.3 to 3	COc1ccc(-c2c(C)ccc3ccc(C(=O)N=C(N)N)cc23)cc1 [Example 12]
3 to 30	NC(N)=NC(=O)c1ccc2cccc(-c3ncc(C4CC4)cc3Cl)c2c1 [Example 192]
3 to 30	NC(N)=NC(=O)c1ccc2cccc(-c3ncc(Cl)cc3F)c2c1 [Example 180]
3 to 30	NC(N)=NC(=O)c1ccc2cccc(-c3cc(Cl)ncc3Cl)c2c1 [Example 38]
3 to 30	NC(N)=NC(=O)c1ccc2cccc(-c3cccc4c3OC(F)(F)O4)c2c1 [Example 115]
3 to 30	NC(N)=NC(=O)c1ccc2cccc(-c3ccnc(C(F)(F)F)n3)c2c1 [Example 187]
0.3 to 3	NC(N)=NC(=O)c1ccc2cccc(-c3c(O)ccc(F)c3F)c2c1 [Example 117]
0.3 to 3	NC(N)=NC(=O)c1ccc2cccc(-c3cc(Cl)ccc3F)c2c1 [Example 70]

Ki [nM]	Structure (SMILES)
0.3 to 3	NC(N)=NC(=O)c1ccc2cccc(-c3cccc4c3OCO4)c2c1 [Example 92]
3 to 30	N#Cc1ccccc1-c1cccc2ccc(C(=O)N=C(N)N)cc12 [Example 20]
0.3 to 3	Cc1ccsc1-c1cccc2ccc(C(=O)N=C(N)N)cc12 [Example 48]
0.3 to 3	NC(N)=NC(=O)c1ccc2cccc(-c3c(F)cc(F)cc3Cl)c2c1 [Example 140]
0.3 to 3	NC(N)=NC(=O)c1ccc2cccc(-c3c(F)ccc(O)c3Cl)c2c1 [Example 119]
0.3 to 3	NC(N)=NC(=O)c1ccc2cccc(-c3ccsc3)c2c1 [Example 47]
3 to 30	NC(N)=NC(=O)c1ccc2cccc(C3CC3)c2c1 [Example 103]
3 to 30	NC(N)=NC(=O)c1ccc2cccc(-c3ccc(C(F)(F)F)cn3)c2c1 [Example 189]
30 to 300	NC(N)=NC(=O)c1ccc2cccc(-c3ncccc3C(F)(F)F)c2c1 [Example 168]
30 to 300	N#Cc1ccc(F)cc1-c1cccc2ccc(C(=O)N=C(N)N)cc12 [Example 39]
3 to 30	N#Cc1cc(F)ccc1-c1cccc2ccc(C(=O)N=C(N)N)cc12 [Example 16]
0.3 to 3	NC(N)=NC(=O)c1ccc2cccc(-c3cc(Cl)ccc3Cl)c2c1 [Example 76]
3 to 30	NC(N)=NC(=O)c1ccc2cccc(-c3ccncc3)c2c1 [Example 133]
0.3 to 3	N#Cc1cc(F)c(-c2cccc3ccc(C(=O)N=C(N)N)cc23)c(F)c1 [Example 155]
3 to 30	NC(N)=NC(=O)c1ccc2cccc(-c3cccc4cccnc34)c2c1 [Example 123]
0.3 to 3	COc1nc(C)ccc1-c1c(Cl)ccc2ccc(C(=O)N=C(N)N)cc12 [Example 174]
0.3 to 3	NC(N)=NC(=O)c1ccc2ccc(Cl)c(-c3ccccc3F)c2c1 [Example 110]
0.3 to 3	NC(N)=NC(=O)c1ccc2cccc(-c3ccccc3O)c2c1 [Example 13]
3 to 30	Cc1nc(-c2ccc(-c3cccc4ccc(C(=O)N=C(N)N)cc34)cc2)no1 [Example 137]
3 to 30	N#Cc1ccc(-c2cccc3ccc(C(=O)N=C(N)N)cc23)nc1 [Example 184]
3 to 30	NC(N)=NC(=O)c1ccc2cccc(-c3ccnc(Cl)c3)c2c1 [Example 53]
0.3 to 3	COc1cccc(Cl)c1-c1cccc2ccc(C(=O)N=C(N)N)cc12 [Example 32]
0.3 to 3	NC(N)=NC(=O)c1ccc2cccc(-c3cccc4c3OCC4)c2c1 [Example 95]
0.3 to 3	NC(N)=NC(=O)c1ccc2cccc(-c3ncc(F)cc3Cl)c2c1 [Example 169]

Ki [nM]	Structure (SMILES)
0.3 to 3	NC(N)=NC(=O)c1ccc2cccc(-c3c(F)cccc3OC(F)F)c2c1 [Example 107]
0.3 to 3	NC(N)=NC(=O)c1ccc2ccc(Cl)c(-c3ccncc3Cl)c2c1 [Example 157]
3 to 30	NC(N)=NC(=O)c1ccc2cccc(-c3cccc4nonc34)c2c1 [Example 179]
0.3 to 3	NC(N)=NC(=O)c1ccc2cccc(-c3cccc(Cl)c3O)c2c1 [Example 178]
0.3 to 3	NC(N)=NC(=O)c1ccc2cccc(-c3cc(F)ccc3Cl)c2c1 [Example 78]
0.3 to 3	NC(N)=NC(=O)c1ccc2cccc(-c3c(Cl)cccc3Cl)c2c1 [Example 58]
0.3 to 3	COc1ccc(-c2cccc3ccc(C(=O)N=C(N)N)cc23)c(OC)c1 [Example 5]
3 to 30	Cc1nc(C)c(-c2cccc3ccc(C(=O)N=C(N)N)cc23)s1 [Example 17]
3 to 30	COc1c(F)cccc1-c1cccc2ccc(C(=O)N=C(N)N)cc12 [Example 27]
0.3 to 3	Cc1ccc2ccc(C(=O)N=C(N)N)cc2c1-c1ccc(C#N)cc1 [Example 10]
0.3 to 3	NC(N)=NC(=O)c1ccc2cccc(-c3ccc(Cl)cc3F)c2c1 [Example 59]
0.3 to 3	NC(N)=NC(=O)c1ccc2cccc(-c3ccc(F)cc3F)c2c1 [Example 35]
3 to 30	NC(N)=NC(=O)c1ccc2cccc(-c3cccc4ccccc34)c2c1 [Example 102]
3 to 30	COc1cccc(-c2cccc3ccc(C(=O)N=C(N)N)cc23)c1F [Example 40]
0.3 to 3	NC(N)=NC(=O)c1ccc2ccc(Cl)c(-c3ccncc3)c2c1 [Example 147]
3 to 30	COc1c(F)cc(F)c(-c2cccc3ccc(C(=O)N=C(N)N)cc23)c1F [Example 127]
3 to 30	NC(N)=NC(=O)c1ccc2cccc(-c3c[nH]c4ccccc34)c2c1 [Example 173]
0.3 to 3	NC(N)=NC(=O)c1ccc2cccc(-c3c(F)ccc(O)c3F)c2c1 [Example 118]
0.3 to 3	COc1ccc(-c2cccc3ccc(C(=O)N=C(N)N)cc23)cc1 [Example 90]
3 to 30	NC(N)=NC(=O)c1ccc2cccc(-c3ccc(Cl)cn3)c2c1 [Example 153]
0.3 to 3	COc1cc(Cl)ccc1-c1cccc2ccc(C(=O)N=C(N)N)cc12 [Example 57]
3 to 30	COc1ccc(-c2cccc3ccc(C(=O)N=C(N)N)cc23)cn1 [Example 97]
0.3 to 3	NC(N)=NC(=O)c1ccc2cccc(-c3cc(Cl)c(F)cc3F)c2c1 [Example 139]
30 to 300	COc1ccncc1-c1cccc2ccc(C(=O)N=C(N)N)cc12 [Example 98]
